Values belong to the compound of their own block, whether it stands above or below them.
Experiments:
[1] = molecular target: T1, GST-UBE3A and ALDH1A2 proteins (Homo sapiens, UniProt O94788); assay: GST pull-down competition of UBE3A-ALDH1A2 binding; details: peptide added in GST pull-down experiment
T1 construct: His6 (C); made in house; host or cells: E. coli BL21
T1 sequence (O94788 1-518): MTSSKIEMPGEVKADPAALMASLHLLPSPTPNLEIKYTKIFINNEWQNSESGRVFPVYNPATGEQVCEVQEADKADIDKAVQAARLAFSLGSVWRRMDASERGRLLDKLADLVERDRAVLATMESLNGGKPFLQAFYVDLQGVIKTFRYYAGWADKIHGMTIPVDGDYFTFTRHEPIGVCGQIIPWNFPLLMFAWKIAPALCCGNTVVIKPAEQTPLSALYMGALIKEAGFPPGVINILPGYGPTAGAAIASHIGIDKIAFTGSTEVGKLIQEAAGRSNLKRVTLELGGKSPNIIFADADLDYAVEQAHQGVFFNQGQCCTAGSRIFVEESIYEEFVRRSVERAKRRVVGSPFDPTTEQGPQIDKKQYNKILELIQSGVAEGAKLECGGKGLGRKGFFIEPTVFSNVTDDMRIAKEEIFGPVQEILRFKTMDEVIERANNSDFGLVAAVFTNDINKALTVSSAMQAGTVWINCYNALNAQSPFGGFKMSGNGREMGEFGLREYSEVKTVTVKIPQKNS
Protocol: GST, GST-UBE3A and the truncated GST-UBE3A proteins were induced to express in BL21 competent bacterium (NEB) and purified using glutathione agarose (GE Healthcare). ALDH1A1-His6, ALDH1A2-His6 and ALDH1A3-His6 proteins were purified using Ni-NTA agarose (Qiagen). The purified ALDH1A2-His6 and GST-UBE3A proteins were incubated in a pull-down buffer (50 mM Tris-Cl, pH 8.0, 200 mM NaCl, 1 mM EDTA, 1% NP-40, 1 mM DTT, 10 mM MgCl2) at 4° C. for 2 hours. The beads were washed 4 times with the pull-down buffer and analyzed by immunoblotting. The pull-down analysis of other proteins followed the same steps.
Since there was no known substrate for UBE3A to explain the association between the onset of ASD and UBE3A overactivation from a mechanical perspective (Glessner et al., 2009), human UBE3A protein was firstly used as a bait to screen for unknown substrate proteins by yeast two-hybrid method. […] Retinoic acid or RA, as an active metabolite of vitamin A (retinol), is required for the development and growth of higher animals including human. The synthesis of RA is accomplished in two steps, including retinol dehydrogenase (RDH10), which catalyzes retinol into retinal, and retinal dehydrogenase (ALDH1A1, ALDH1A 2, and ALDH1A 3 families which catalyze retinal into retinoic acid). Endogenous or exogenously expressed UBE3A and ALDH1A2 proteins were confirmed to form complexes in HEK-293FT cells by immunoprecipitation experiments (FIG. 2b-c). In immunofluorescence experiments, Flag-tagged and RFP-tagged UBE3A and ALDH1A2 proteins were co-localized in the cytoplasm of […] cell SH-SY5Y (FIG. 2d). The GST pull-down experiment further confirmed that the recombinant proteins UBE3A and ALDH1A2 could bind directly in vitro (FIG. 2e) and bound through the N-terminal (amino acid position of 1-280) of UBE3A (FIG. 2f). Since the ALDH1A2 protein had high sequence homology to other family members of ALDH1A1 and ALDH1A 3, it was further verified that UBE3A could bind directly to ALDH1A1 and ALDH1A3, respectively, in vitro and in vivo (FIG. 2g-j). […]

wild-type C57BL/6 mice [2] = assay: Rotating rod experiment in wild-type mice; format: in vivo; details: wild-type mice, oral ATRA, same administration
Protocol: (§1) Four-week-aged mice were given a low dose (0.1 mg/g) or a high dose (0.3 mg/g) of DSF (Sigma, dissolved in olive oil) every two days for 6 weeks. The control group was only given the solvent olive oil (Aladdin). The body weight of the mice was weighed weekly. After 6 weeks of gastric administration, the test of mouse behavior was started. The brains of the control and DSF mice were dissected and taken. After freezing with liquid nitrogen, the brain tissue was homogenized, and ATRA was quantified by the HPLC-MS/MS method as described hereinafter.
After mice were randomized into groups, the motor coordination ability of the mice was recorded using a Rotamex rotarod instrument (Columnbus Instruments). On the same day, the test mice were tested 3 times, each experiment was lasted 5 minutes, and the rotating rod was accelerated from 4 revolutions […]. There were at least 30 minutes between two experiments. The time before the test mice dropped off the rod was automatically recorded by an infrared detection system, and the results of the last test were finally compared.

wild-type C57BL/6 mice [3] = assay: Open field experiment in wild-type mice; format: in vivo; details: wild-type mice, oral ATRA, same administration
Protocol: as §1
Mice were randomized into groups and placed in an open field instrument (Med Associates) for 30 minutes. The Ethovision automatic recording software (Noldus) was used to record the time spent by the mouse in the central region (⅓ to ⅔ of length on each side of the region) and to calculate the ratio of the distance walked in the central region to the total distance.

[4] = tested on: mice overexpressing UBE3A; assay: Self-grooming experiment in mice overexpressing UBE3A (AAV in PFC); format: in vivo; details: oral ATRA 3 mg/kg, four weeks, compared to oral solvent group
Protocol: To further verify whether UBE3A overactivation triggered the autism phenotype in mice due to injury in the RA production process, mice injected with UBE3A-bearing AAV virus in PFC were orally administered with oral solvents (olive oil) or ATRA (3 mg/kg), administered five consecutive days per week for a total of four weeks.

wild-type C57BL/6 mice [5] = assay: Three-chamber social experiment in wild-type mice; format: in vivo; details: wild-type mice, oral ATRA, same administration
Protocol: Four-week-aged mice were given a low dose (0.1 mg/g) or a high dose (0.3 mg/g) of DSF (Sigma, dissolved in olive oil) every two days for 6 weeks. The control group was only given the solvent olive oil (Aladdin). The body weight of the mice was weighed weekly. After 6 weeks of gastric administration, the test of mouse behavior was started. The brains of the control and DSF mice were dissected and taken. After freezing with liquid nitrogen, the brain tissue was homogenized, and ATRA was quantified by the HPLC-MS/MS method as described hereinafter. A three-chamber social experiment was performed according to previously reported procedures (Sztainberg et al., 2015). Briefly, a transparent acrylic box for social experiment was divided into three chambers of uniform size with removable gates mounted on the partition board. An inverted iron mesh cup was placed in each of the left and right chambers. Two days before the experiment, C57BL/6 mice, which were from different family and whose age was matched with the test mice, were placed in two cups as strange mice for 1 hour each day for accommodation. Test mice were randomized into groups and accommodated to the test chamber for 1 hour before the test started. Each test mouse was placed in the center chamber for 10 minutes for self-exploration, and the chamber door was closed. In the first stage, a strange mouse was randomly placed in the left or right cup (avoiding positional bias), and the inanimate article was placed in the cup on the other side. […] In the second stage, the test mice were kept in the chamber of the strange mouse for 5 minutes, and then another strange mouse was placed in the cup in which the article was previously placed.

[6] = tested on: mice overexpressing UBE3A; assay: Three-chamber social experiment in mice overexpressing UBE3A; format: in vivo; details: oral ATRA 3 mg/kg
Protocol: Three-week-aged mice were anesthetized with intraperitoneal injection of pentobarbital (50 mg/kg) and fixed on a locator (Rivend, China). 1 μL of PBS-diluted AAV virus was injected at a rate of 0.2 μL/min on both sides of the PFC region in the mouse brain using a syringe pump (Stoelting). The position of the site injection (relative to the front fontanel): AP, +2 mm; ML, ±0.5 mm; DV, −1.3 mm. […] The needle was held in place for another 3 minutes to prevent virus reflux. The mice were placed on a 37° C. electric blanket until they recovered completely from the anesthesia. 1-2 days after surgery, mice were intraperitoneally injected with 0.5 mg/ml meloxicam (Sigma, 2 mg/kg) to help the mice to relieve pain. Four weeks after surgery, mice were tested for behavior. […] Behavioral testing was performed 4 weeks after administration.
A three-chamber social experiment was performed according to previously reported procedures (Sztainberg et al., 2015). Briefly, a transparent acrylic box for social experiment was divided into three chambers of uniform size with removable gates mounted on the partition board. An inverted iron mesh cup was placed in each of the left and right chambers. Two days before the experiment, C57BL/6 mice, which were from different family and whose age was matched with the test mice, were placed in two cups as strange mice for 1 hour each day for accommodation. Test mice were randomized into groups and accommodated to the test chamber for 1 hour before the test started. Each test mouse was placed in the center chamber for 10 minutes for self-exploration, and the chamber door was closed. In the first stage, a strange mouse was randomly placed in the left or right cup (avoiding positional bias), and the inanimate article was placed in the cup on the other side. Each test mouse was explored for 10 minutes in the open three-chambers, and the communication time between the test mice and the strange mice or the articles was manually recorded. In the second stage, the test mice were kept in the chamber of the strange mouse for 5 minutes, and then another strange mouse was placed in the cup in which the article was previously placed. The test mice were further explored for 10 minutes, and the communication time between the test mice and the familiar animals or the new animals was manually recorded.
To further verify whether UBE3A overactivation triggered the autism phenotype in mice due to injury in the RA production process, mice injected with UBE3A-bearing AAV virus in PFC were orally administered with oral solvents (olive oil) or ATRA (3 mg/kg), administered five consecutive days per week for a total of four weeks. Then the mice were subjected to behavioral experiments (FIG. 8a).

wild-type C57BL/6 mice [7] = assay: Self-grooming experiment in wild-type mice; format: in vivo; details: wild-type mice, oral ATRA, same administration
Protocol: as §1, with “hereinafter. The mice used in the self-grooming experiment were placed in a cage box filled with a filler having a thickness of about 0.5-1 cm for 10 minutes in advance for accommodation. Then, within 10 minutes, the time of self-grooming in mice was recorded by a double-blind experimenter through a stopwatch.” for “hereinafter.”

[8] = tested on: mice overexpressing UBE3A; assay: Rotating rod experiment in mice overexpressing UBE3A; format: in vivo; details: oral ATRA 3 mg/kg
Protocol: Three-week-aged mice were anesthetized with intraperitoneal injection of pentobarbital (50 mg/kg) and fixed on a locator (Rivend, China). 1 μL of PBS-diluted AAV virus was injected at a rate of 0.2 μL/min on both sides of the PFC region in the mouse brain using a syringe pump (Stoelting). The position of the site injection (relative to the front fontanel): AP, +2 mm; ML, ±0.5 mm; DV, −1.3 mm. The amount of virus injected per injection site was: AAV-SynI-Flag-UBE3A and its mutant T508E, 3×10^9; and AAV-SynI-Flag-EGFP, 1.5×10^9. The needle was held in place for another 3 minutes to prevent virus reflux. The mice were placed on a 37° C. electric blanket until they recovered completely from the anesthesia. 1-2 days after surgery, mice were intraperitoneally injected with 0.5 mg/ml meloxicam (Sigma, 2 mg/kg) to help the mice to relieve pain. Four weeks after surgery, mice were tested for behavior. […]
After mice were randomized into groups, the motor coordination ability of the mice was recorded using a Rotamex rotarod instrument (Columnbus Instruments). […] The time before the test mice dropped off the rod was automatically recorded by an infrared detection system, and the results of the last test were finally compared.

[9] = tested on: mice overexpressing UBE3A; assay: Open field experiment in mice overexpressing UBE3A; format: in vivo; details: oral ATRA 3 mg/kg, vs solvent group
Protocol: Three-week-aged mice were anesthetized with intraperitoneal injection of pentobarbital (50 mg/kg) and fixed on a locator (Rivend, China). 1 μL of PBS-diluted AAV virus was injected at a rate of 0.2 μL/min on both sides of the PFC region in the mouse brain using a syringe pump (Stoelting). The position of the site injection (relative to the front fontanel): AP, +2 mm; ML, ±0.5 mm; DV, −1.3 mm. The amount of virus injected per injection site was: AAV-SynI-Flag-UBE3A and its mutant T508E, 3×10^9; and AAV-SynI-Flag-EGFP, 1.5×10^9. The needle was held in place for another 3 minutes to prevent virus reflux. The mice were placed on a 37° C. electric blanket until they recovered completely from the anesthesia. 1-2 days after surgery, mice were intraperitoneally injected with 0.5 mg/ml meloxicam (Sigma, 2 mg/kg) to help the mice to relieve pain. Four weeks after surgery, mice were tested for behavior. In the ATRA compensation experiment, one week after the injection of AAV-SynI-Flag-UBE3A virus, mice were orally administered with ATRA (Sigma, dissolved in olive oil, 3 mg/kg) or olive oil for five consecutive days. Behavioral testing was performed 4 weeks after administration.
Mice were randomized into groups and placed in an open field instrument (Med Associates) for 30 minutes. […]

Compound: peptide-2: SEQ ID No: 10 NNAAAIKALELYKINAKLCDPH, targets UBE3A-ALDH1A2 binding region (peptide-2)
blocking of binding between GST-UBE3A and ALDH1A2 proteins [1]: could block the bonding between GST-UBE3A and ALDH1A2 proteins in different extend

rotating rod experiment, solvent vs ATRA (wild-type C57BL/6 mice [2]): did not cause any differences | open field experiment, solvent vs ATRA (wild-type C57BL/6 mice [3]): did not cause any differences | three-chamber social interaction experiment, solvent vs ATRA (wild-type C57BL/6 mice [5]): did not cause any differences | self-grooming experiment, solvent vs ATRA (wild-type C57BL/6 mice [7]): did not cause any differences | sport ability (rotating rod) [8]: did not affect the sport ability | distance walked in open field [9]: walked more distance | time in the middle of the open field [9]: less time
Compound: CC1=C(/C=C/C(C)=C/C=C/C(C)=C/C(=O)O)C(C)(C)CCC1 [ATRA, all-trans retinoic acid]
time spent on self-grooming behavior [4]: significantly reduced | cognitive deficits in social novelty [6]: alleviated | time interacting with social animals vs non-social articles [6]: nearly twice as much time | time spent with strange mice vs familiar mice [6]: twice | social barriers ([6]; compared with solvent group): completely reversed

Compound: peptide-3: SEQ ID No: 11 AEALVQSFRKVKQHTKEELKSLQAKDEDKD, targets UBE3A-ALDH1A2 binding region (peptide-3)
blocking of binding between GST-UBE3A and ALDH1A2 proteins [1]: could block the bonding between GST-UBE3A and ALDH1A2 proteins in different extend

Compound: peptide-1: SEQ ID No: 9 ASRMKRAAAKHLIERYYHQLTEGCG, targets UBE3A-ALDH1A2 binding region (peptide-1)
blocking of binding between GST-UBE3A and ALDH1A2 proteins [1]: could block the bonding between GST-UBE3A and ALDH1A2 proteins in different extend
